Results published in ChEMBL document CHEMBL5625165, “Nine-valent oleanolic acid conjugates as potent inhibitors blocking the entry of influenza A virus” (Eur J Med Chem, 2023).

What was measured:
Influenza A virus [1] = assay: Antiviral activity against influenza A virus A/WSN/33(H1N1) infected in MDCK cells assessed as inhibition of viral growth at 30 uM incubated for 48 hrs by microscopic analysis; type: functional; parameters: scale not given: the % may be the effect or the level left
[2] = Cytotoxicity against dog MDCK cells assessed as reduction in cell viability incubated for 48 hrs by celltiter-glo assay; type: toxicity, cell-based, Canis lupus familiaris
[3] = Selectivity index, ratio of CC50 for cytotoxicity against dog MDCK cells assessed as reduction in cell viability to IC50 for antiviral activity against influenza A virus A/WSN/33(H1N1) infected in MDCK cells assessed as inhibition of viral-induced cytopathic effect; type: toxicity, cell-based; conditions: read-out: Ratio CC50/IC50
Influenza A virus [4] = assay: Antiviral activity against influenza A virus B/Sichuan/531/2018 (Victoria) infected in MDCK cells assessed as inhibition of viral growth; type: functional, organism-based
[5] = Cytotoxicity against dog MDCK cells assessed as cell viability at 30 uM incubated for 48 hrs by celltiter-glo assay; type: toxicity, cell-based, Canis lupus familiaris; conditions: read-out: Activity
Influenza A virus [6] = assay: Antiviral activity against influenza A virus B/Darwin/58/2019 (Yamagata) infected in MDCK cells assessed as inhibition of viral growth; type: functional, organism-based
Influenza A virus [7] = assay: Antiviral activity against influenza A virus A/WSN/33(H1N1) infected in MDCK cells assessed as inhibition of viral-induced cytopathic effect incubated for 48 hrs by microscopic analysis; type: functional, organism-based

Row | SMILES | Activity (Influenza A virus [1]) [%] | CC50 at 48 h [2] [µM] | selectivity ratio [3] | IC50 (Influenza A virus [4]) [µM] | viability at 48 h, 30 µM [5] [%] | IC50 (Influenza A virus [6]) [µM] | IC50 (Influenza A virus [7]) [µM]
1 | CCOC(=O)C1=C[C@@H](OC(CC)CC)[C@H](NC(C)=O)[C@@H](N)C1.O=P(O)(O)O [OSELTAMIVIR PHOSPHATE] | 89.22 | > 100 | > 55 | > 100 | 100 | > 100 | 
2 | CC1(C)CC[C@]2(C(=O)O)CC[C@]3(C)C(=CC[C@@H]4[C@@]5(C)CC[C@H](O)C(C)(C)[C@@H]5CC[C@]43C)[C@@H]2C1 [OLEANOLIC_ACID] | 25.06 | > 100 | > 1.38 |  | 99 |  | 
3 | CC1(C)CC[C@]2(C(=O)NCCOCCOCCn3cc(COc4cc(C(=O)NCCNC(=O)OCCn5cc(COc6cc(OCc7cn(CCOC(=O)NCCNC(=O)c8cc(OCc9cn(CCOCCOCCNC(=O)[C@]%10%11CCC(C)(C)C[C@H]%10C%10=CC[C@@H]%12[C@@]%13(C)CC[C@H](O)C(C)(C)[C@@H]%13CC[C@@]%12(C)[C@]%10(C)CC%11)nn9)c(OCc9cn(CCOCCOCCNC(=O)[C@]%10%11CCC(C)(C)C[C@H]%10C%10=CC[C@@H]%12[C@@]%13(C)CC[C@H](O)C(C)(C)[C@@H]%13CC[C@@]%12(C)[C@]%10(C)CC%11)nn9)c(OCc9cn(CCOCCOCCNC(=O)[C@]%10%11CCC(C)(C)C[C@H]%10C%10=CC[C@@H]%12[C@@]%13(C)CC[C@H](O)C(C)(C)[C@@H]%13CC[C@@]%12(C)[C@]%10(C)CC%11)nn9)c8)nn7)cc(OCc7cn(CCOC(=O)NCCNC(=O)c8cc(OCc9cn(CCOCCOCCNC(=O)[C@]%10%11CCC(C)(C)C[C@H]%10C%10=CC[C@@H]%12[C@@]%13(C)CC[C@H](O)C(C)(C)[C@@H]%13CC[C@@]%12(C)[C@]%10(C)CC%11)nn9)c(OCc9cn(CCOCCOCCNC(=O)[C@]%10%11CCC(C)(C)C[C@H]%10C%10=CC[C@@H]%12[C@@]%13(C)CC[C@H](O)C(C)(C)[C@@H]%13CC[C@@]%12(C)[C@]%10(C)CC%11)nn9)c(OCc9cn(CCOCCOCCNC(=O)[C@]%10%11CCC(C)(C)C[C@H]%10C%10=CC[C@@H]%12[C@@]%13(C)CC[C@H](O)C(C)(C)[C@@H]%13CC[C@@]%12(C)[C@]%10(C)CC%11)nn9)c8)nn7)c6)nn5)cc(OCc5cn(CCOCCOCCNC(=O)[C@]67CCC(C)(C)C[C@H]6C6=CC[C@@H]8[C@@]9(C)CC[C@H](O)C(C)(C)[C@@H]9CC[C@@]8(C)[C@]6(C)CC7)nn5)c4OCc4cn(CCOCCOCCNC(=O)[C@]56CCC(C)(C)C[C@H]5C5=CC[C@@H]7[C@@]8(C)CC[C@H](O)C(C)(C)[C@@H]8CC[C@@]7(C)[C@]5(C)CC6)nn4)nn3)CC[C@]3(C)C(=CC[C@@H]4[C@@]5(C)CC[C@H](O)C(C)(C)[C@@H]5CC[C@]43C)[C@@H]2C1 | 97.28 | > 30 | > 1.66 |  | 97.2 |  | 18.1
4 | COC(=O)c1cc(OCc2cn(CCOCCOCCOCCNC(=O)c3cc(OCc4cn(CCOCCOCCOCCNC(=O)[C@]56CCC(C)(C)C[C@H]5C5=CC[C@@H]7[C@@]8(C)CC[C@H](O)C(C)(C)[C@@H]8CC[C@@]7(C)[C@]5(C)CC6)nn4)c(OCc4cn(CCOCCOCCOCCNC(=O)[C@]56CCC(C)(C)C[C@H]5C5=CC[C@@H]7[C@@]8(C)CC[C@H](O)C(C)(C)[C@@H]8CC[C@@]7(C)[C@]5(C)CC6)nn4)c(OCc4cn(CCOCCOCCOCCNC(=O)[C@]56CCC(C)(C)C[C@H]5C5=CC[C@@H]7[C@@]8(C)CC[C@H](O)C(C)(C)[C@@H]8CC[C@@]7(C)[C@]5(C)CC6)nn4)c3)nn2)c(OCc2cn(CCOCCOCCOCCNC(=O)c3cc(OCc4cn(CCOCCOCCOCCNC(=O)[C@]56CCC(C)(C)C[C@H]5C5=CC[C@@H]7[C@@]8(C)CC[C@H](O)C(C)(C)[C@@H]8CC[C@@]7(C)[C@]5(C)CC6)nn4)c(OCc4cn(CCOCCOCCOCCNC(=O)[C@]56CCC(C)(C)C[C@H]5C5=CC[C@@H]7[C@@]8(C)CC[C@H](O)C(C)(C)[C@@H]8CC[C@@]7(C)[C@]5(C)CC6)nn4)c(OCc4cn(CCOCCOCCOCCNC(=O)[C@]56CCC(C)(C)C[C@H]5C5=CC[C@@H]7[C@@]8(C)CC[C@H](O)C(C)(C)[C@@H]8CC[C@@]7(C)[C@]5(C)CC6)nn4)c3)nn2)c(OCc2cn(CCOCCOCCOCCNC(=O)c3cc(OCc4cn(CCOCCOCCOCCNC(=O)[C@]56CCC(C)(C)C[C@H]5C5=CC[C@@H]7[C@@]8(C)CC[C@H](O)C(C)(C)[C@@H]8CC[C@@]7(C)[C@]5(C)CC6)nn4)c(OCc4cn(CCOCCOCCOCCNC(=O)[C@]56CCC(C)(C)C[C@H]5C5=CC[C@@H]7[C@@]8(C)CC[C@H](O)C(C)(C)[C@@H]8CC[C@@]7(C)[C@]5(C)CC6)nn4)c(OCc4cn(CCOCCOCCOCCNC(=O)[C@]56CCC(C)(C)C[C@H]5C5=CC[C@@H]7[C@@]8(C)CC[C@H](O)C(C)(C)[C@@H]8CC[C@@]7(C)[C@]5(C)CC6)nn4)c3)nn2)c1 | 65.08 | > 30 | > 0.64 |  | 100 |  | 47.1
